The target in one assay is T1, HIV-1 protease (Human immunodeficiency virus type 1 group M subtype B, UniProt P04585, C555A/C583A/L521I/L551I/Q495K/V491I).
T1 construct: Wild-type PR at final concentrations of 160-190 nM were added
As to the kind of experiment: biochemical. It counts as biochemical. The text has this: Enzyme kinetics. The chromogenic substrate Lys-Ala-Arg-Val-Nle-p-nitroPhe-Glu-Ala-Nle-amide (Sigma, St. Louis, Mo.) was used to determine the kinetic parameters (Kovalevsky et al. J Mol Biol 363(1):161-173 (2006), Ghosh et al. J Med Chem 49(17):5252-5261 (2006)). […] The kcat and Km values were obtained employing standard data fitting techniques for a reaction obeying Michaelis-Menten kinetics. The data curves were fitted using SigmaPlot 8.0.2 (SPSS Inc., Chicago, Ill.). The active enzyme concentrations were calculated from the intercept of the linear fit to the IC50 versus [S] plots with the IC50 axis. The Ki values were obtained from the IC50 values estimated from an inhibitor dose-response curve with the spectroscopic assay using the equation Ki=(IC50-[E]/2)/(1+[S]/Km), where [E] and [S] are the PR and substrate concentrations, respectively (Maibaum & Rich J Med Chem 31(34):625-629 (1988)). The Ki values were measured at four to five substrate concentrations. The measurement was repeated at least three times to produce the average values.

In another assay the test system is HIV-1NL4-3. As to the kind of experiment: In vitro selection of HIV-1 variants resistant to GRL-98065. Type of assay: cell-based. The text has this:
Generation of PI-resistant HIV-1 in vitro. MT-4 cells (10^5/mL) were exposed to HIV-1NL4-3 (500 TCID50) and cultured in the presence of various PIs at an initial concentration of its IC50 values. Viral replication was monitored by determination of the amount of p24 Gag produced by MT-4 cells. The culture supernatants were harvested on day 7 and used to infect fresh MT-4 cells for the next round of culture in the presence of increasing concentrations of each drug. […] Proviral DNA samples obtained from the lysates of infected cells were subjected to nucleotide sequencing. This drug selection procedure was carried out until the drug concentration reached 1 or 5 μM.
The protease-encoding region of the proviral DNA isolated from infected MT-4 cells was cloned and sequenced at passages 5, 10, 15, 20, 25, 30, 33, and 40. […] Met46 is located on the flap region of the enzyme.

Assay [1] deals with HIV-2 strains (HIV-2EHO and HIV-2ROD). As to the kind of experiment: MTT assay, MT-2 cells, HIV-2 strains compared with HIV-1LAI. Type of assay: cell-based. Here is the method: Drug susceptibility assay. The susceptibility of HIV-1LAI, HIV-2EHO, HIV-2ROD, to various drugs and the cytotoxicity of those drugs was determined by using the MTT assay. Briefly, MT-2 cells (2×10^4/mL) were exposed to 100 TCID50s (50% tissue culture infectious doses) of HIV-1LAI, HIV-2EHO, or HIV-2ROD in the presence or absence of various concentrations of drugs in 96-well microculture plates and were incubated at 37° C. for 7 days. After 100 μL of the medium was removed from each well, 3-(4,5-dimethylthiazol-2-yl)-2,5-diphenyltetrazolium bromide (MTT) solution (10 μL, 7.5 mg/mL in phosphate-buffered saline) was added to each well in the plate, followed by incubation at 37° C. for 4 hours. […] All assays were performed in duplicate or triplicate. […] On day 7 of culture, the supernatant was harvested and the amount of p24 Gag protein was determined by using a fully automated chemiluminescent enzyme immunoassay system (Lumipulse F; Fujirebio Inc., Tokyo, Japan) (22). […]
A general note: Tetrazolium assays rely on reduction of a dye to a coloured formazan, in cell work by metabolically active cells.

As for `CC(C)CN(CC(O)C(Cc1ccccc1)NC(=O)OC1COC2OCCC12)S(=O)(=O)c1ccc2c(c1)OCO2` (stereo not shown) [GRL-98065], affinity at HIV-1 protease was put at a Ki of 0.014 nM. In the assay on HIV-1NL4-3 (40 passages in MT-4 cells, start 0.0005 μM), the “fold increase of drug concentration tolerated by selected virus” value is 1,000. Further, the “drug concentration at which selected virus was still propagating” value in the assay on HIV-1NL4-3 (after 40 passages in MT-4 cells) came to 0.5 µM. The “factor by which potency against HIV-2 strains is less than against HIV-1LAI” value in assay [1] was 6-9.

Source of the values: patent US9808527B2, “Methods and compositions for treating HIV infections” (priority 2006, dated 2017).
